Reference: publication doi:10.1101/2021.08.24.457553v1 (biorxiv, 2021)
Blank lines part the entries; values can stand above or below the compound they belong to.

Key:
[1] = liver microsomes
[2] = in vitro; set-up: species or system primary non-human primate hepatocytes; settings: monkey, primary hepatocytes
[3] = target: T1, PfPKG (Plasmodium falciparum, UniProt Q8I719); test: in vitro PfPKG kinase inhibition assay; format: biochemical
[4] = in vitro; set-up: species or system primary non-human primate hepatocytes; settings: monkey, primary hepatocytes; remark: listed apart in the source
[5] = tested on: P. berghei; test: microbe, parasite or virus in culture; settings: Plasmodium berghei, HepG2, read-out: % inhibition
[6] = target: 2C9 (Homo sapiens, UniProt P11712); test: biochemical
[7] = liver microsomes; remark: listed apart in the source
[8] = target: 2D6 (Homo sapiens, UniProt P10635); test: biochemical
[9] = target: T1, PfPKG; test: in vitro PfPKG kinase inhibition assay; format: biochemical; settings: […] compound
[10] = target: CYP3A4 (Homo sapiens, UniProt P08684); test: in vitro CYP3A4 inhibition; format: cell-based
[11] = target: hERG (Homo sapiens, UniProt Q12809); settings: HEK293, 10 µM
[12] = target: T1, PfPKG; test: in vitro PfPKG kinase inhibition assay; format: biochemical; settings: […] compound; remark: listed apart in the source

T1 sequence (Q8I719 whole entry): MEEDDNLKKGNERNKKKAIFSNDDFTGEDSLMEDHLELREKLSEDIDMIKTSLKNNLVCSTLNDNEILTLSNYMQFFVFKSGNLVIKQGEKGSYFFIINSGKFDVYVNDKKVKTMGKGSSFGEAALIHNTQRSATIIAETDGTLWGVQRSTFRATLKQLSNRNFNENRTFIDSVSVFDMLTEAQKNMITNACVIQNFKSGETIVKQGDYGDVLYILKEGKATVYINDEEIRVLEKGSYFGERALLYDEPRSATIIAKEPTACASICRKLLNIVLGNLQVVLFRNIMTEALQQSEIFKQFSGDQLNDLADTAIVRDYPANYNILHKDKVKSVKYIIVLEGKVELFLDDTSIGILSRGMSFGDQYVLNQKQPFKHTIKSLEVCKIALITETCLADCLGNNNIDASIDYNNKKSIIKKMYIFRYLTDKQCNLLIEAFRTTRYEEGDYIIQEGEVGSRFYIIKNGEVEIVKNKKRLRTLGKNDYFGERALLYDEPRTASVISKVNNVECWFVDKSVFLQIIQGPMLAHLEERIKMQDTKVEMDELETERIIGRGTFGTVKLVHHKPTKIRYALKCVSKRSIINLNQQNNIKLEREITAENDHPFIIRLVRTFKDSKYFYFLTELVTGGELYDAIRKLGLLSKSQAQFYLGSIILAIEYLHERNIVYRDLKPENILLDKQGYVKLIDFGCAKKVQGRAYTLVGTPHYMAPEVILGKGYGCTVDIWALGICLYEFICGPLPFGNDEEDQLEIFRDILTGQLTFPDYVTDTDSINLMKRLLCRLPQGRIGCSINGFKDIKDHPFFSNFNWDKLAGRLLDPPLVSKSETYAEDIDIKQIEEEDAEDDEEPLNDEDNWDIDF
Chain of CYP3A4 (P08684 2-503): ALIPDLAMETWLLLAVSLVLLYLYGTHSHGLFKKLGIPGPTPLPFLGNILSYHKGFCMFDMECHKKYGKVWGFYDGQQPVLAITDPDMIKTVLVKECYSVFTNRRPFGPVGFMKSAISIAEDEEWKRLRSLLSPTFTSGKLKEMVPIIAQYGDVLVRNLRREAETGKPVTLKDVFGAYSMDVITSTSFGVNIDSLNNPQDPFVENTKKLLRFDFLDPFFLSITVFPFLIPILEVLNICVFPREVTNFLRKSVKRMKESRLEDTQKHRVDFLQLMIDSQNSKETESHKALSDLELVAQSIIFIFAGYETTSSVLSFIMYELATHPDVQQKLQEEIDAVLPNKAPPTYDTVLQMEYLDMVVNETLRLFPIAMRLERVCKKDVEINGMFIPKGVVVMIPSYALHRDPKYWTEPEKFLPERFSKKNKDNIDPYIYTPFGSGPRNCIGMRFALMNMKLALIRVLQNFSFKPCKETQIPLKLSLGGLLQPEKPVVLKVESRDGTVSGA
Chain of hERG (Q12809 whole entry): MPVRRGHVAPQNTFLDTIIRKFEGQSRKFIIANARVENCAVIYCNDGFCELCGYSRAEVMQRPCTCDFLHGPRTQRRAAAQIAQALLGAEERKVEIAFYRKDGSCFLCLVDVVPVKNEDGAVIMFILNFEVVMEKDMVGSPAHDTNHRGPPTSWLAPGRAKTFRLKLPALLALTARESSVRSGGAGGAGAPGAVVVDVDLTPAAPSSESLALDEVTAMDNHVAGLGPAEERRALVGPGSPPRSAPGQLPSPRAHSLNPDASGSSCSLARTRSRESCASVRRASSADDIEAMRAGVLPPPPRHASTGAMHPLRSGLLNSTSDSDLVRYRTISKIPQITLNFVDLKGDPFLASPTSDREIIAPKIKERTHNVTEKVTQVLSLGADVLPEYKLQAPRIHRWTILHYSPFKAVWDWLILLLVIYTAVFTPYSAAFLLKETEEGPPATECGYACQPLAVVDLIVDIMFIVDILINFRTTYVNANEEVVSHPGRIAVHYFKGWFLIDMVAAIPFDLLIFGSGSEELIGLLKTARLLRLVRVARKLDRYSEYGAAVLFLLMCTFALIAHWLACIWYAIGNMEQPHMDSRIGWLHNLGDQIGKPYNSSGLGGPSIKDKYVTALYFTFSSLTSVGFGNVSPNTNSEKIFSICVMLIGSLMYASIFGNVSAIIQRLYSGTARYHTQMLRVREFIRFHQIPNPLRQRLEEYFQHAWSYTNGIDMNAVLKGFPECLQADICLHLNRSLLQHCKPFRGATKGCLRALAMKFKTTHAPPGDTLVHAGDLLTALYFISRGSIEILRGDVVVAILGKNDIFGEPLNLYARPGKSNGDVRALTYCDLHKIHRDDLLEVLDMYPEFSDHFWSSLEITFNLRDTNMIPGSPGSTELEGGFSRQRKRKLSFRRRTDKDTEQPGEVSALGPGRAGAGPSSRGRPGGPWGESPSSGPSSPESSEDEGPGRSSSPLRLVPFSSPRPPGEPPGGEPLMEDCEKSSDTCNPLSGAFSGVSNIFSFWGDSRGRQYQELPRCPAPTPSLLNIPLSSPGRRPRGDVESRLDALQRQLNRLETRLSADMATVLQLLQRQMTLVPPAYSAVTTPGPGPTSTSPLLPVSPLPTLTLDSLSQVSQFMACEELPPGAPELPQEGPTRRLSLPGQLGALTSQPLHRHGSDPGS
Chain of 2D6 (P10635 whole entry): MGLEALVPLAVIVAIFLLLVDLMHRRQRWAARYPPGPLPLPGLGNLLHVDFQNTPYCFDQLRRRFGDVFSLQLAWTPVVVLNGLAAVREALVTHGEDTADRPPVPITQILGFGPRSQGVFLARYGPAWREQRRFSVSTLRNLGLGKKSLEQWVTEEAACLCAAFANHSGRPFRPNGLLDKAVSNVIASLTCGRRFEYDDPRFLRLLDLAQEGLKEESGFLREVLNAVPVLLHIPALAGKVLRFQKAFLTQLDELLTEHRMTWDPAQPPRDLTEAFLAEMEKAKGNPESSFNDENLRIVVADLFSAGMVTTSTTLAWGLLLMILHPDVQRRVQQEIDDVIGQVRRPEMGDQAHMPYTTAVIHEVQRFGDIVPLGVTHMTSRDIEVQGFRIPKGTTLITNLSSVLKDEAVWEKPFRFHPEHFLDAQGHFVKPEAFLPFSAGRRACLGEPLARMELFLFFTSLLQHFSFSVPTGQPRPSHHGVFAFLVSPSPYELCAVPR
Chain of 2C9 (P11712 whole entry): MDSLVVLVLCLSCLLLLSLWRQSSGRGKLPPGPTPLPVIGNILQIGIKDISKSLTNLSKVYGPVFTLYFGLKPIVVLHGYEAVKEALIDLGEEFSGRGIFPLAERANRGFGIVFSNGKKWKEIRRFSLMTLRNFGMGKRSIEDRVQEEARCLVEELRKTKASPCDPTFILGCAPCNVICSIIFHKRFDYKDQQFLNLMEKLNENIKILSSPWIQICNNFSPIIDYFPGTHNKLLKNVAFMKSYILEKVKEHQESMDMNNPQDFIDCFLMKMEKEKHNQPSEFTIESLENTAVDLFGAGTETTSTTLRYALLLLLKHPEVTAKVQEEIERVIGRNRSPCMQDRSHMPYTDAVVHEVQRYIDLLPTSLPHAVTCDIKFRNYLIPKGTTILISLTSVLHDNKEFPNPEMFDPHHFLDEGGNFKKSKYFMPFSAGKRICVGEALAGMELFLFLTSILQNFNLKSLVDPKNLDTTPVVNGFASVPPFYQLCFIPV

SMILES: Cc1cn(-c2ccnc(N[C@@H]3CCN(C(=O)c4nccs4)C3)n2)c(-c2ccccc2)n1 [10a]
MLM t1/2 [1]: < 2 min
CC50 at 96 h [2]: > 20000 nM
IC50 [3]: 320 nM
CC50 at 96 h [4]: > 20000 nM
inhibition at 2 µM [5]: 78 ± 20%
inhibition at 10 µM [5]: 89 ± 7%
IC50 [6]: > 10000 nM
HLM t1/2 [7]: < 2 min
IC50 [8]: > 10000 nM

SMILES: Cc1cn(-c2ccnc(NC3CCCN(C(=O)c4nccs4)C3)n2)c(-c2ccccc2)n1 (racemic) [10d]
% inh @ 1 uM [9]: 4%

SMILES: O=C(c1nccs1)N1CC[C@@H](Nc2nccc(-n3cc(C4CC4)nc3-c3ccccc3)n2)C1 [14a]
MLM t1/2 [1]: < 2 min
IC50 [10]: < 300 nM
hERG % inh. @ 10 uM [11]: 1%
IC50 [3]: 100 nM
HLM t1/2 [7]: 4.8 min

SMILES: O=C(c1nccs1)N1CC[C@@H](Nc2nccc(-n3cc(C4CC4)nc3-c3cccc(Cl)c3)n2)C1 [14b]
MLM t1/2 [1]: <2 min
IC50 [10]: < 300 nM
hERG % inh. @ 10 uM [11]: 9%
CC50 at 96 h [2]: > 20000 nM
IC50 [3]: 60 nM
CC50 at 96 h [4]: > 20000 nM
inhibition at 2 µM [5]: 94 ± 3%
inhibition at 10 µM [5]: 93 ± 3%
HLM t1/2 [7]: 3.7 min

SMILES: Cc1cn(-c2ccnc(N[C@H]3CCN(C(=O)c4nccs4)C3)n2)c(-c2ccccc2)n1 [10c]
% inh @ 1 uM [9]: 4%

SMILES: Cc1cn(-c2ccnc(N[C@@H]3CCN(C(=O)c4ccn(C)n4)C3)n2)c(-c2ccccc2)n1 [10b]
IC50 [3]: 1000 nM

Further lines, results first:

IC50 [3]: 150 nM
SMILES: Cc1cn(-c2ccnc(N[C@@H]3CCN(C(=O)c4nccs4)C3)n2)c(-c2cccc(OC(F)(F)F)c2)n1 [18d]

IC50 [3]: 86 nM
SMILES: COc1cccc(-c2nc(C)cn2-c2ccnc(N[C@@H]3CCN(C(=O)c4nccs4)C3)n2)c1 [18a]

IC50 [3]: 1160 nM
SMILES: Cc1cn(-c2ccnc(N[C@@H]3CCN(C(=O)c4nccs4)C3)n2)c(-c2ccc(Cl)cc2)n1 [18c]

% inhib @ 1 uM [12]: 47%
SMILES: Cc1cn(-c2ccnc(N[C@@H]3CCN(C(=O)c4nccs4)C3)n2)c(-c2ccccc2Cl)n1 [18b]
